Source: patent publication US20230227427A1, “IL-17A MODULATORS” (SANOFI, priority 2010, published 2023)

Molecular target: T1, human recombinant IL-17A (Homo sapiens, UniProt Q16552)
T1 construct: purchased R&D Systems 7955-IL/CF
T1 sequence (Q16552 24-155): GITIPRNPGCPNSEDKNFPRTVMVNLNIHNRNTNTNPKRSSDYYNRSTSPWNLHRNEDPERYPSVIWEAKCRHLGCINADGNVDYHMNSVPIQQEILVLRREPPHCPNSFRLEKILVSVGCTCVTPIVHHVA
Assay: IL-17A AlphaLISA assay (block binding of IL-17A to its receptor IL-17RA)
Settings: compounds pre-incubated with the IL-17A for 30 min (indicated by * in Table A); for IC50: read-out: AlphaLISA pIC50 (converted)
Outline: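 PBS with 0.05% Tween-20 and 0.1% BSA. IL-17A stock 7.5 nM, IL-17RA/Fc stock 5 nM; compound–cytokine pre-incubation 24 h at RT, or 30 min where marked, then 90 min with receptor. pIC50 from 4-parameter logistic AlphaLISA signal, normalised to DMSO and 6 μM reference inhibitor.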

Row | SMILES | IC50 | AlphaLISA pIC50
1 | Cc1n[nH]c(C)c1-c1ccc(NC(=O)[C@@H](NC(=O)c2ccnn2C)[C@H]2CC[C@H](C)CC2)nc1 [Example 99, N—((S)-2-((5-(3,5-Dimethyl-1H-pyrazol-4-yl)pyridin-2-yl)amino)-1-((1r,4S)-4-methylcyclohexyl)-2-oxoethyl)-1-methyl-1H-pyrazole-5-carboxamide] | 200 nM | 
2 | Cc1n[nH]c(C)c1-c1ccc(NC(=O)C(NC(=O)c2ccnn2C)C2CCCCCCC2)cc1 (stereo not shown) [Example 104, N-(1-Cyclooctyl-2-((4-(3,5-dimethyl-1H-pyrazol-4-yl)phenyl)amino)-2-oxoethyl)-1-methyl-1H-pyrazole-5-carboxamide] | 79.4 nM | 
3 | Cc1c(-c2ccc(NC(=O)C(NC(=O)c3ccnn3C)C3CCCCCCC3)cc2)ccc(=O)n1C (stereo not shown) [Example 107, N-(1-Cyclooctyl-2-((4-(1,2-dimethyl-6-oxo-1,6-dihydropyridin-3-yl)phenyl)amino)-2-oxoethyl)-1-methyl-1H-pyrazole-5-carboxamide] | 158 nM | 
4 | Cc1noc(C)c1-c1ccc(NC(=O)[C@@H](NC(=O)c2ccnn2C(C)C)C2CCCCC2)nc1 [Example 108, (S)—N-(1-Cyclohexyl-2-((5-(3,5-dimethylisoxazol-4-yl)pyridin-2-yl)amino)-2-oxoethyl)-1-isopropyl-1H-pyrazole-5-carboxamide] | 126 nM | 
5 | CCn1nccc1C(=O)N[C@H](C(=O)Nc1ccc(-c2c(C)noc2C)cn1)[C@H]1CC[C@H](C)CC1 [Example 109, N—((S)-2-((5-(3,5-Dimethylisoxazol-4-yl)pyridin-2-yl)amino)-1-((1r,4S)-4-methylcyclohexyl)-2-oxoethyl)-1-ethyl-1H-pyrazole-5-carboxamide] | 100 nM | 
6 | Cc1noc(C)c1-c1ccc(NC(=O)[C@@H](NC(=O)c2ccnn2C(C)C)[C@H]2CC[C@H](C)CC2)nc1 [Example 110, N—((S)-2-((5-(3,5-dimethylisoxazol-4-yl)pyridin-2-yl)amino)-1-((1r,4S)-4-methylcyclohexyl)-2-oxoethyl)-1-isopropyl-1H-pyrazole-5-carboxamide] | 79.4 nM | 
7 | CCc1nocc1C(=O)N[C@H](C(=O)Nc1ccc(-c2c(C)noc2C)cn1)[C@H]1CC[C@H](C)CC1 [Example 111, N—((S)-2-((5-(3,5-dimethylisoxazol-4-yl)pyridin-2-yl)amino)-1-((1r,4S)-4-methylcyclohexyl)-2-oxoethyl)-3-ethylisoxazole-4-carboxamide] | 79.4 nM | 
8 | Cc1nocc1C(=O)N[C@H](C(=O)Nc1ccc(-c2c(C)noc2C)cn1)[C@H]1CC[C@H](C)CC1 [Example 112, N—((S)-2-((5-(3,5-dimethylisoxazol-4-yl)pyridin-2-yl)amino)-1-((1r,4S)-4-methylcyclohexyl)-2-oxoethyl)-3-methylisoxazole-4-carboxamide] | 100 nM | 
9 | Cc1noc(C)c1-c1ccc(NC(=O)[C@@H](NC(=O)c2cnnn2C)C2CCCCCC2)nc1 [Example 117, (S)—N-(1-Cycloheptyl-2-((5-(3,5-dimethylisoxazol-4-yl)pyridin-2-yl)amino)-2-oxoethyl)-1-methyl-1H-1,2,3-triazole-5-carboxamide] | 501 nM | 
10 | CCn1nccc1C(=O)N[C@H](C(=O)Nc1ccc(-c2c(C)noc2C)cn1)C1CCCCC1 [Example 118, (S)—N-(1-Cyclohexyl-2-((5-(3,5-dimethylisoxazol-4-yl)pyridin-2-yl)amino)-2-oxoethyl)-1-ethyl-1H-pyrazole-5-carboxamide] | 158 nM | 
11 | Cc1c(-c2ccc(NC(=O)[C@@H](NC(=O)c3ccnn3C)C3CCCCC3)cc2)ccc(=O)n1C [Example 119, (S)—N-(1-Cyclohexyl-2-((4-(1,2-dimethyl-6-oxo-1,6-dihydropyridin-3-yl)phenyl)amino)-2-oxoethyl)-1-methyl-1H-pyrazole-5-carboxamide] | 501 nM | 
12 | Cc1nonc1C(=O)N[C@H](C(=O)Nc1ccc(-c2c(C)noc2C)cn1)[C@H]1CC[C@H](C)CC1 [Example 120, N—((S)-2-((5-(3,5-Dimethylisoxazol-4-yl)pyridin-2-yl)amino)-1-((1r,4S)-4-methylcyclohexyl)-2-oxoethyl)-4-methyl-1,2,5-oxadiazole-3-carboxamide] | 251 nM | 
13 | Cc1nocc1C(=O)N[C@H](C(=O)Nc1ccc(-c2c(C)noc2C)cn1)C1CCCCC1 [Example 121, (S)—N-(1-Cyclohexyl-2-((5-(3,5-dimethylisoxazol-4-yl)pyridin-2-yl)amino)-2-oxoethyl)-3-methylisoxazole-4-carboxamide] | 251 nM | 
14 | Cc1noc(C)c1-c1ccc(NC(=O)[C@@H](NC(=O)c2ccnn2C(C)C)C2CCCCCC2)nc1 [Example 123, (S)—N-(1-Cycloheptyl-2-((5-(3,5-dimethylisoxazol-4-yl)pyridin-2-yl)amino)-2-oxoethyl)-1-isopropyl-1H-pyrazole-5-carboxamide] | 39.8 nM | 
15 | CCc1nocc1C(=O)N[C@H](C(=O)Nc1ccc(-c2c(C)noc2C)cn1)C1CCCCCC1 [Example 124, (S)—N-(1-Cycloheptyl-2-((5-(3,5-dimethylisoxazol-4-yl)pyridin-2-yl)amino)-2-oxoethyl)-3-ethylisoxazole-4-carboxamide] | 39.8 nM | 
16 | Cc1nnn(C)c1-c1ccc(NC(=O)[C@@H](NC(=O)c2ccnn2C)[C@H]2CC[C@H](C)CC2)nc1 [Example 125, N—((S)-2-((5-(1,4-Dimethyl-1H-1,2,3-triazol-5-yl)pyridin-2-yl)amino)-1-((1r,4S)-4-methylcyclohexyl)-2-oxoethyl)-1-methyl-1H-pyrazole-5-carboxamide] |  | 6.8*
17 | CCc1nocc1C(=O)N[C@H](C(=O)Nc1ccc(-c2c(C)cnn2C)cn1)[C@H]1CC[C@H](C)CC1 [Example 127, N—((S)-2-((5-(1,4-Dimethyl-1H-pyrazol-5-yl)pyridin-2-yl)amino)-1-((1r,4S)-4-methylcyclohexyl)-2-oxoethyl)-3-ethylisoxazole-4-carboxamide] | 39.8 nM | 
18 | Cc1noc(C)c1-c1ccc(NC(=O)[C@@H](NC(=O)c2ccnn2C)C2CCCCC2)nc1 [Example 129, (S)—N-(1-Cyclohexyl-2-((5-(3,5-dimethylisoxazol-4-yl)pyridin-2-yl)amino)-2-oxoethyl)-1-methyl-1H-pyrazole-5-carboxamide] | 316 nM | 

More lines, now with the values ahead:

Row | IC50 | AlphaLISA pIC50 | SMILES
19 | 126 nM |  | Cc1cncc(C)c1-c1ccc(NC(=O)C(NC(=O)c2ccnn2C)C2CCCCCCC2)cc1 (stereo not shown) [Example 103, N-(1-Cyclooctyl-2-((4-(3,5-dimethylpyridin-4-yl)phenyl)amino)-2-oxoethyl)-1-methyl-1H-pyrazole-5-carboxamide]
20 | 158 nM |  | Cc1noc(C)c1-c1ccc(NC(=O)C(NC(=O)c2ccnn2C)C2CCCCCCC2)nc1 (stereo not shown) [Example 105, N-(1-Cyclooctyl-2-((5-(3,5-dimethylisoxazol-4-yl)pyridin-2-yl)amino)-2-oxoethyl)-1-methyl-1H-pyrazole-5-carboxamide]
21 | 100 nM |  | Cc1cnn(C)c1-c1ccc(NC(=O)[C@@H](NC(=O)c2ccnn2C)[C@H]2CC[C@H](C)CC2)nc1 [Example 106, N—((S)-2-((5-(1,4-Dimethyl-1H-pyrazol-5-yl)pyridin-2-yl)amino)-1-((1r,4S)-4-methylcyclohexyl)-2-oxoethyl)-1-methyl-1H-pyrazole-5-carboxamide]
22 | 158 nM |  | Cc1cnn(C)c1-c1ccc(NC(=O)C(NC(=O)c2ccnn2C)C2CCCCCCC2)nc1 (stereo not shown) [Example 113, N-(1-Cyclooctyl-2-((5-(1,4-dimethyl-1H-pyrazol-5-yl)pyridin-2-yl)amino)-2-oxoethyl)-1-methyl-1H-pyrazole-5-carboxamide]
23 | 158 nM |  | CCc1nocc1C(=O)N[C@H](C(=O)Nc1ccc(-c2c(C)noc2C)cn1)C1CCCCC1 [Example 114, (S)—N-(1-Cyclohexyl-2-((5-(3,5-dimethylisoxazol-4-yl)pyridin-2-yl)amino)-2-oxoethyl)-3-ethylisoxazole-4-carboxamide]
24 | 126 nM |  | Cc1noc(C)c1-c1ccc(NC(=O)[C@@H](NC(=O)c2ccnn2C)C2CCCCCC2)nc1 [Example 115, (S)—N-(1-Cycloheptyl-2-((5-(3,5-dimethylisoxazol-4-yl)pyridin-2-yl)amino)-2-oxoethyl)-1-methyl-1H-pyrazole-5-carboxamide]
25 | 63.1 nM |  | Cc1nocc1C(=O)N[C@H](C(=O)Nc1ccc(-c2c(C)noc2C)cn1)C1CCCCCC1 [Example 116, (S)—N-(1-Cycloheptyl-2-((5-(3,5-dimethylisoxazol-4-yl)pyridin-2-yl)amino)-2-oxoethyl)-3-methylisoxazole-4-carboxamide]
26 | 39.8 nM |  | CCn1nccc1C(=O)N[C@H](C(=O)Nc1ccc(-c2c(C)noc2C)cn1)C1CCCCCC1 [Example 122, (S)—N-(1-Cycloheptyl-2-((5-(3,5-dimethylisoxazol-4-yl)pyridin-2-yl)amino)-2-oxoethyl)-1-ethyl-1H-pyrazole-5-carboxamide]
27 | 50.1 nM |  | CCn1nccc1C(=O)N[C@H](C(=O)Nc1ccc(-c2c(C)cnn2C)cn1)[C@H]1CC[C@H](C)CC1 [Example 126, N—((S)-2-((5-(1,4-Dimethyl-1H-pyrazol-5-yl)pyridin-2-yl)amino)-1-((1r,4S)-4-methylcyclohexyl)-2-oxoethyl)-1-ethyl-1H-pyrazole-5-carboxamide]
28 | 251 nM |  | Cc1nonc1C(=O)N[C@H](C(=O)Nc1ccc(-c2c(C)noc2C)cn1)C1CCCCCC1 [Example 128, (S)—N-(1-Cycloheptyl-2-((5-(3,5-dimethylisoxazol-4-yl)pyridin-2-yl)amino)-2-oxoethyl)-4-methyl-1,2,5-oxadiazole-3-carboxamide]
